This experiment addresses T1, ABCG2 (Homo sapiens, UniProt Q9UNQ0).
T1 sequence (Q9UNQ0 1-655): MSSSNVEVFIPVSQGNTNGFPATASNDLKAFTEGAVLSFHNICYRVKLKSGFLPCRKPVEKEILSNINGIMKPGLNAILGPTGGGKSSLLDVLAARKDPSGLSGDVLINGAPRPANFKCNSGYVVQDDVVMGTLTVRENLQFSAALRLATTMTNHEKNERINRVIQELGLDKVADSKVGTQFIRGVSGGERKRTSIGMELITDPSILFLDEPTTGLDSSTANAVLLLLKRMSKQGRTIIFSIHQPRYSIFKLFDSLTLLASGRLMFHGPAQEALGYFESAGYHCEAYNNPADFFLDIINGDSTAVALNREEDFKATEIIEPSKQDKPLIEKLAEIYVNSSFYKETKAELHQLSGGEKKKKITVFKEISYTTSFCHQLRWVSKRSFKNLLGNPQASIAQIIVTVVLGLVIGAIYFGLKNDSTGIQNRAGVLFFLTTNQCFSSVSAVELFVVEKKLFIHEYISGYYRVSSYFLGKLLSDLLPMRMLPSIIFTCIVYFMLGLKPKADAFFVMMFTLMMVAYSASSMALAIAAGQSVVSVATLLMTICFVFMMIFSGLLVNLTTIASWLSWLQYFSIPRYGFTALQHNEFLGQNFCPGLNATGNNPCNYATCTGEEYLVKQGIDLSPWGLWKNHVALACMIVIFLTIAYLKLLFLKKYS
As to the kind of experiment: Hoechst […] accumulation assay in ABCG2-transfected MDCK II BCRP cells. The experiment is classed as cell-based.

Consider 1 molecule from paper PMC7497240 (Chembiochem, 2020).

As usually defined, the IC50 is the concentration that gives 50% inhibition. A high value points to a need for much substance.

`O=C1NC(=O)c2c1c1c3ccccc3[nH]c1c1[nH]c3ccccc3c21` [compound 8, arcyriaflavin A] returned an IC50 of 9 µM.
